Data from PMC11050599, “Novel Tetracyclic Azaphenothiazines with the Quinoline Ring as New Anticancer and Antibacterial Derivatives of Chlorpromazine” (International Journal of Molecular Sciences, 2024).
In brackets after ≈: the same amount, converted by molar mass.

Columns and labels:
[1] = test system: MiaPaCa-2 (pancreas cancer); assay: MTT assay, MiaPaCa-2 cells; format: cell-based, human; conditions: for IC50: Homo sapiens, MIA PaCa-2, MTT, 72 h, read-out: IC50 MiaPaCa-2; for SI MiaPaCa-2: SI = IC50 for normal cell line (HaCaT)/IC50 cancer cell line
Description: (§1) The human cell lines, such as A549 (lung cancer), MDA-MB-231 (breast cancer), MiaPaca-2 (pancreatic cancer), PC3 (metastatic prostate cancer), HCT-116 (colon carcinoma), and HaCaT (immortalized keratinocytes), were sourced from the American Type Culture Collection (ATCC) in Rockville, USA. Culturing conditions varied as follows: HCT116 cells were cultured in MEM (ThermoSci, Waltham, MA, USA), A549, MDA-MB-231, MiaPaca, HaCaT cells in DMEM High Glucose and PC3 cells were cultured in RPMI (Biowest SAS, Nuaillé, France). The growth medium consisted of 10% fetal bovine serum (FBS, Sigma-Aldrich, St. Louis, MO, USA), 20 mM HEPES (Biowest, Nuaillé, France), and antibiotics (100 U/mL of penicillin and 100 μg/mL of streptomycin) from Gibco, Grand Island, NY, USA. […] These compounds were added to 96-well plates containing study cells (1 × 10^4 cells per well) and incubated for 72 h. […] Cell absorbance results were incorporated into the formula for calculating the relative MTT level (%), enabling the assessment of cell viability following exposure to the test compounds. The cell viability percentage represents the MTT reduction in cells treated with the test compounds compared to the control sample, where only the medium was added to the cells.

[2] = test system: S. epidermidis ATCC 35984; assay: MIC broth microdilution; format: cell-based; conditions: Staphylococcus epidermidis, ATCC35984; 19 h, 35 °C; read-out: MIC S. epidermidis ATCC 35984
Excerpt: (§2) To evaluate the antibacterial effectiveness of chloroquinobenzothiazine derivatives, various bacterial strains from international microbe collections such as the American Type Culture Collection (ATCC) and the National Collection of Type Culture (NCTC) were examined, alongside a panel of clinical rods. This included two Gram-negative organisms, E. coli ATCC 25922 and P. aeruginosa ATCC 15442, and a series of six Gram-positive strains: S. aureus NCTC 4163; S. aureus ATCC 29213, 25923, and 6538; and S. epidermidis ATCC 12228 and 35984. […] The MIC was determined using the two-fold serial broth microdilution method in 96-well microtitration plates containing Mueller-Hinton II broth medium (Becton Dickinson, Franklin Lakes, NJ, USA). The final inoculum for all tested bacteria was adjusted to […] (colony-forming units per milliliter). The stock solution of the tested compounds was prepared in dimethyl sulfoxide (DMSO) and diluted to a maximum of 1% solvent content with a sterile medium.

[3] = test system: S. aureus ATCC 29213; assay: MIC broth microdilution; format: cell-based; conditions: Staphylococcus aureus, ATCC29213; 19 h, 35 °C; read-out: MIC S. aureus ATCC 29213
Excerpt: as §2

[4] = test system: P. aeruginosa ATCC 15442; assay: MIC broth microdilution; format: cell-based; conditions: Pseudomonas aeruginosa, ATCC15442; 19 h, 35 °C; read-out: MIC P. aeruginosa ATCC 15442
Excerpt: as §2

[5] = test system: E. coli ATCC 25922; assay: MIC broth microdilution; format: cell-based; conditions: Escherichia coli, ATCC25922; 19 h, 35 °C; read-out: MIC E. coli ATCC 25922
Excerpt: as §2

[6] = test system: S. aureus ATCC 6538; assay: MIC broth microdilution; format: cell-based; conditions: Staphylococcus aureus, ATCC6538; 19 h, 35 °C; read-out: MIC S. aureus ATCC 6538
Excerpt: as §2

[7] = test system: S. aureus NCTC 4163; assay: MIC broth microdilution; format: cell-based; conditions: Staphylococcus aureus, NCTC4163; 19 h, 35 °C; read-out: MIC S. aureus NCTC 4163
Excerpt: as §2

[8] = test system: S. epidermidis ATCC 12228; assay: MIC broth microdilution; format: cell-based; conditions: Staphylococcus epidermidis, ATCC12228; 19 h, 35 °C; read-out: MIC S. epidermidis ATCC 12228
Excerpt: as §2

[9] = test system: S. aureus ATCC 25923; assay: MIC broth microdilution; format: cell-based; conditions: Staphylococcus aureus, ATCC25923; 19 h, 35 °C; read-out: MIC S. aureus ATCC 25923
Excerpt: as §2

[10] = test system: MiaPaCa-2 cells; assay: Annexin V-FITC/PI apoptosis flow cytometry, MiaPaCa-2; format: cell-based, human
Description: (§3) To analyze the number of cells in early apoptosis, late apoptosis, or necrosis, A549, MiaPaca-2, and HCT-116 cell lines were cultured in 6-well plates with a seeding density of 1 × 10^5 cells per well. These cells were then treated with selected compounds (4, 5, and 8) at their respective IC50 concentrations and incubated for 72 h. Subsequently, a commercially available kit, the FITC: Annexin V Apoptosis Detection Kit I from BD Biosciences Pharmingen in San Jose, CA, USA, was utilized to assess apoptosis. After 72 h the cells were harvested, washed, and labeled with Annexin V-FITC and propidium iodide (PI) following the manufacturer’s protocol (Becton Dickinson), as previously described. The stained cells were analyzed by flow cytometry. The cells were identified as early apoptotic (Annexin V+/PI−) or late apoptotic/necrotic (Annexin V+/PI+).

[11] = test system: HCT116 (colon cancer); assay: MTT assay, HCT116 cells; format: cell-based, human; conditions: for IC50: Homo sapiens, HCT-116, MTT, 72 h, read-out: IC50 HCT116
Description: as §1

[12] = test system: PC3 (prostate cancer); assay: MTT assay, PC3 cells; format: cell-based, human; conditions: for IC50: Homo sapiens, PC-3, MTT, 72 h, read-out: IC50 PC3; for SI PC3: SI = IC50 for normal cell line (HaCaT)/IC50 cancer cell line
Description: as §1

[13] = test system: MDA-MB-231 (breast cancer); assay: MTT assay, MDA-MB-231 cells; format: cell-based, human; conditions: for IC50: Homo sapiens, MDA-MB-231, MTT, 72 h, MDA-MB231, read-out: IC50 MDA; for SI MDA: SI = IC50 for normal cell line (HaCaT)/IC50 cancer cell line
Description: as §1

[14] = test system: A549 (lung cancer); assay: MTT assay, A549 cells; format: cell-based, human; conditions: for IC50: Homo sapiens, A549, MTT, 72 h, mean SD, read-out: IC50 A549
Description: as §1

[15] = test system: HaCaT (immortalized human keratinocytes); assay: MTT assay, HaCaT normal cells; format: cell-based; conditions: Homo sapiens, HaCaT; MTT, 72 h, normal cells; read-out: IC50 HaCaT (Table 3)
Description: as §1

[16] = test system: cancer cell lines; assay: MTT assay, summary over several cell lines; format: cell-based, human; conditions: Homo sapiens; range over two cell lines not given; read-out: IC50 range against two tested cell lines
Description: as §1

[17] = test system: HCT116 cells; assay: Annexin V-FITC/PI apoptosis flow cytometry, HCT116; format: cell-based, human
Description: as §3

[18] = test system: HCT116 cells; assay: Cell cycle analysis by flow cytometry, HCT116; format: cell-based, human; conditions: IC50, 24 h, compared to the control
Description: In brief, cells were seeded at a density of 1 × 10^5 cells/well on a six-well plate and allowed to adhere for 24 h. […] Both population cells (the attached and detached) were collected and centrifuged at 400× g for 5 min at 4 °C. After centrifugation, the cells were washed twice with 0.9% NaCl and subsequently fixed in 500 μL of 70 % cold ethanol overnight.
Before analysis, the fixed cells underwent another centrifugation step at 850× g for 5 min at 4 °C and were washed with PBS. Following the washes, the cells were incubated with 50 μL of RNase (100 μg/mL) and 200 μL of propidium iodide (PI) (50 μg/mL) at 37 °C for 30 min in the dark. Finally, 100 μL of PBS was added to each sample. Flow cytometry (Becton Dickinson FACS Verse, Franklin Lakes, NJ, USA) was then used to analyze the cell cycle distribution, identifying cells in various stages including sub-G1, G0/G1, S, and G2/M phases. Each assay was performed in quadruplicate.

[19] = test system: A549 cells; assay: Annexin V-FITC/PI apoptosis flow cytometry, A549; format: cell-based, human
Description: as §3

[20] = representative dot plot, Figure 4B, IC50, 72 h
[21] = SI = IC50 for normal cell line (HaCaT)/IC50 cancer cell line
[22] = representative dot plot, Figure 4C, IC50, 72 h
[23] = representative dot plot, Figure 4A, IC50, 72 h

IC50 [1] | MIC [2] | MIC [3] | MIC [4] | MIC [5] | MIC [6] | MIC [7] | MIC [8] | MIC [9] | IC50 [11] | IC50 [12] | IC50 [13] | IC50 [14] | SMILES | SI MiaPaCa-2 [1] | SI PC3 [12] | SI MDA [13] | IC50 [15] | further results
11.1 ± 0.4 µM | 8 µg/mL (≈ 28.1 µM) | 8 µg/mL (≈ 28.1 µM) | 256 µg/mL (≈ 899 µM) | 256 µg/mL (≈ 899 µM) | 8 µg/mL (≈ 28.1 µM) | 8 µg/mL (≈ 28.1 µM) | 8 µg/mL (≈ 28.1 µM) | 8 µg/mL (≈ 28.1 µM) | 33.5 ± 6.8 µM | 76.5 ± 8.1 µM | 76.5 ± 0.8 µM | 14.9 ± 2.7 µM | Clc1ccc2c(c1)Nc1nc3ccccc3cc1S2 [Compound 5, 6H-8-chloroquino[3,2-b]benzo[1,4]thiazine] | 5.0 | 0.7 | 0.7 | 56.5 ± 4.5 µM | cells in early apoptosis, MiaPaCa-2 ([10]; compound at IC50, 72 h): 4.56%; cells in late apoptosis/necrosis, MiaPaCa-2 ([10]; compound at IC50, 72 h): 23%; MiaPaca: Alive [10, 20]: 72.68%; MiaPaca: Early Apoptotic [10, 20]: 4.56%; MiaPaca: Necrotic [10, 20]: 9.46%; MiaPaca: Necrotic/Late Apoptotic [10, 20]: 13.29%; SI HCT116 [11, 21]: 1.7; SI A549 [14, 21]: 3.8; IC50 [16]: 11.1 to 14.9 µM
40.2 ± 0.7 µM | 8 µg/mL (≈ 21.6 µM) | 8 µg/mL (≈ 21.6 µM) | 256 µg/mL (≈ 692 µM) | 64 µg/mL (≈ 173 µM) | 8 µg/mL (≈ 21.6 µM) | 8 µg/mL (≈ 21.6 µM) | 8 µg/mL (≈ 21.6 µM) | 8 µg/mL (≈ 21.6 µM) | 1.6 ± 0.8 µM | 52.1 ± 7.1 µM | 52.1 ± 2.7 µM | 8.2 ± 3.6 µM | CN(C)CCCN1c2cc(Cl)ccc2Sc2cc3ccccc3nc21 [Compound 8, 3-(8-Chloroquino[3,2-b]benzo[1,4]thiazin-6-yl)-N,N-dimethylpropan-1-amine] | 1.6 | 1.2 | 1.2 | 62.3 ± 2.5 µM | cells in early apoptosis, HCT116 ([17]; compound at IC50, 72 h): 9.09 ± 0.5%; cells in late apoptosis/necrosis, HCT116 ([17]; compound at IC50, 72 h): 8.55 ± 0.33%; HCT-116: Alive [17, 22]: 78.75%; HCT-116: Early Apoptotic [17, 22]: 9.09%; HCT-116: Necrotic [17, 22]: 3.61%; HCT-116: Necrotic/Late Apoptotic [17, 22]: 8.55%; increase in the cell amount at the sub-G1 phase, HCT116 [18]: 5 fold; increase in the number of cells in the G2/M phase, HCT116 [18]: approximately 1.3 fold; increase in the number of cells in the S phase, HCT116 [18]: approximately 2 fold; cells in late apoptosis or necrosis, A549 ([19]; compound at IC50, 72 h): 42%; A549: Alive [19, 23]: 62.41%; A549: Early Apoptotic [19, 23]: 2.39%; A549: Necrotic [19, 23]: 24.93%; A549: Necrotic/Late Apoptotic [19, 23]: 10.27%
